Experimental data published in patent US20070049593A1 (priority 2004, published 2007).

Biological target: T1, HCV polymerase (Hepatitis C virus genotype 1b, UniProt P26663)
T1 construct: a region encoding NS5B (J Virol 1991 March, 65(3), 1105-13, 544 amino acids after deletion of 47 amino acids on the C-terminal); 6xHis (C); made in house; host or cells: Escherichia coli
Assay: biochemical
Parameters: species or system HCV BK strain
Outline: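 Recombinant HCV BK-strain NS5B (C-terminal 47 aa deleted, His6-tagged, E. coli), 0.5 μg/ml, run with 5 μg/ml in vitro-transcribed RNA template (polyU/3′X), ATP/GTP/CTP 50 μM, UTP 2 μM plus [3H]UTP, pH 7.5, 25° C, 90 min. TCA-precipitated RNA counted by scintillation; IC50 from activity with vs without compound.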

T1 sequence (P26663 2420-2963): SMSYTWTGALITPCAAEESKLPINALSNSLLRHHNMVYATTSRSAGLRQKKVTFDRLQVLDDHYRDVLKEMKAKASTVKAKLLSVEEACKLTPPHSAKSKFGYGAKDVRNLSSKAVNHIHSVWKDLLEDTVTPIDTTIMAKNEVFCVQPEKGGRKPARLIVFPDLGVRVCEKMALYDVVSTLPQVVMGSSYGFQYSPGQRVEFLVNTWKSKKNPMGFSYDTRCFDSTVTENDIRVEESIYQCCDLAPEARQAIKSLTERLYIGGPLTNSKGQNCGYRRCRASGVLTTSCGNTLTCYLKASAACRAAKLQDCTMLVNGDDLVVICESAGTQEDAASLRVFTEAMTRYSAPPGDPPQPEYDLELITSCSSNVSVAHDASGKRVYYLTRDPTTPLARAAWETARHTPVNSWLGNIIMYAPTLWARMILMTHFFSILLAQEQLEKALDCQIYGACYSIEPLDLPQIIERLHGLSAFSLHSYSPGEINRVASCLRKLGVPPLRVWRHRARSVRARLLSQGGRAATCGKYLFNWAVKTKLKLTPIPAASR

| Structure (SMILES) | IC50 [nM] |
| --- | --- |
| COc1ccc2c(c1)OCCn1c-2c(C2CCCCC2)c2ccc(C(=O)NC3(c4nc5cc(CO)c(OC)cc5[nH]4)CCC3)cc21 [Example 2-413, N-[1-(5-hydroxymethyl-6-methoxy-1H-benzimidazol-2-yl)cyclobutyl]-12-cyclohexyl-3-methoxy-6,7-dihydro-5-oxa-7a-azadibenzo[a,e]azulene-9-carboxamide] | < 100 |
| COc1ccc2c(c1)OCCn1c-2c(C2CCCCC2)c2ccc(C(=O)N[C@@H](Cc3ccc(N)cc3)c3csc(C)n3)cc21 [Example 2-414, N—[(S)-2-(4-aminophenyl)-1-(2-methylthiazol-4-yl)ethyl]-12-cyclohexyl-3-methoxy-6,7-dihydro-5-oxa-7a-azadibenzo[a,e]azulene-9-carboxamide] | < 100 |
| COC(=O)Nc1ccc(C[C@H](NC(=O)c2ccc3c(C4CCCCC4)c4n(c3c2)CCOc2cc(OC)ccc2-4)c2csc(C)n2)cc1 [Example 2-415, methyl (4-[(S)-2-[(12-cyclohexyl-3-methoxy-6,7-dihydro-5-oxa-7a-azadibenzo[a,e]azulene-9-carbonyl)amino]-2-(2-methylthiazol-4-yl)ethyl]phenyl}carbamate] | < 100 |
| COc1ccc2c(c1)OCCn1c-2c(C2CCCCC2)c2ccc(C(=O)N[C@@H](Cc3ccc(O)cc3)C(=O)NC(C)(C)C(=O)O)cc21 [Example 2-416, 2-[(S)-2-[(12-cyclohexyl-3-methoxy-6,7-dihydro-5-oxa-7a-azadibenzo[a,e]azulene-9-carbonyl)amino]-3-(4-hydroxyphenyl)propionylamino]-2-methylpropionic acid] | < 100 |
| COC(=O)COc1ccc2[nH]cc(C[C@H](NC(=O)c3ccc4c(C5CCCCC5)c5n(c4c3)CCOc3cc(OC)ccc3-5)c3csc(C)n3)c2c1 [Example 2-417, methyl {3-[(S)-2-[(12-cyclohexyl-3-methoxy-6,7-dihydro-5-oxa-7a-azadibenzo[a,e]azulene-9-carbonyl)amino]-2-(2-methylthiazol-4-yl)ethyl]-1H-indol-5-yloxy}acetate] | < 100 |
| COc1ccc2c(c1)OCCn1c-2c(C2CCCCC2)c2ccc(C(=O)NC(C)(C)c3nc4ccc(C(=O)N5CCN(C)CC5)cc4[nH]3)cc21 [Example 2-418, N-(1-methyl-1-[6-(4-methylpiperazine-1-carbonyl)-1H-benzimidazol-2-yl]ethyl}-12-cyclohexyl-3-methoxy-6,7-dihydro-5-oxa-7a-azadibenzo[a,e]azulene-9-carboxamide] | < 100 |
| COc1ccc2c(c1)OCCn1c-2c(C2CCCCC2)c2ccc(C(=O)NC(C)(C)c3nc4ccc(C(=O)N5CCOCC5)cc4[nH]3)cc21 [Example 2-419, N-(1-methyl-1-[6-(morpholine-4-carbonyl)-1H-benzimidazol-2-yl]ethyl}-12-cyclohexyl-3-methoxy-6,7-dihydro-5-oxa-7a-azadibenzo[a,e]azulene-9-carboxamide] | < 100 |
| COc1ccc2c(c1)OCCn1c-2c(C2CCCCC2)c2ccc(C(=O)NC3(c4nc5ccc(OCc6ccccc6)cc5[nH]4)CCC3)cc21 [Example 2-420, N-[1-(6-benzyloxy-1H-benzimidazol-2-yl)cyclobutyl]-12-cyclohexyl-3-methoxy-6,7-dihydro-5-oxa-7a-azadibenzo[a,e]azulene-9-carboxamide] | < 100 |
| COc1ccc2c(c1)OCCn1c-2c(C2CCCCC2)c2ccc(C(=O)N[C@@H](Cc3c[nH]c4ccc(OCCO)cc34)c3csc(C)n3)cc21 [Example 2-421, N—[(S)-2-[5-(2-hydroxyethoxy)-1H-indol-3-yl]-1-(2-methylthiazol-4-yl)ethyl]-12-cyclohexyl-3-methoxy-6,7-dihydro-5-oxa-7a-azadibenzo[a,e]azulene-9-carboxamide] | < 100 |
| COc1ccc2c(c1)OCCn1c-2c(C2CCCCC2)c2ccc(C(=O)NC(C)(C)c3ccc(/C=C/C(=O)O)cc3)cc21 [Example 2-422, (E)-3-(4-{1-[(12-cyclohexyl-3-methoxy-6,7-dihydro-5-oxa-7a-azadibenzo[a,e]azulene-9-carbonyl)amino]-1-methylethyl}phenyl)acrylic acid] | < 100 |
| COc1ccc2c(c1)OCCn1c-2c(C2CCCCC2)c2ccc(C(=O)NC(C)(C)c3ccc(CCC(=O)O)cc3)cc21 [Example 2-423, 3-(4-{1-[(12-cyclohexyl-3-methoxy-6,7-dihydro-5-oxa-7a-azadibenzo[a,e]azulene-9-carbonyl)amino]-1-methylethyl}phenyl)propionic acid] | < 100 |
| COCCCOc1ccc(C[C@H](NC(=O)c2ccc3c(C4CCCCC4)c4n(c3c2)CCOc2cc(OC)ccc2-4)C(=O)OC)cc1 [Example 2-424, methyl (S)-2-[(12-cyclohexyl-3-methoxy-6,7-dihydro-5-oxa-7a-azadibenzo[a,e]azulene-9-carbonyl)amino]-3-[4-(3-methoxypropoxy)phenyl]propionate] | < 100 |
| COc1ccc2c(c1)OCCn1c-2c(C2CCCCC2)c2ccc(C(=O)N[C@@H](Cc3ccc(NC(=O)N(C)C)cc3)C(=O)O)cc21 [Example 2-425, (S)-2-[(12-cyclohexyl-3-methoxy-6,7-dihydro-5-oxa-7a-azadibenzo[a,e]azulene-9-carbonyl)amino]-3-[4-(3,3-dimethylureido)phenyl]propionic acid] | < 100 |
| CONC(=O)[C@H](Cc1ccc(O)cc1)NC(=O)c1ccc2c(C3CCCCC3)c3n(c2c1)CCOc1cc(OC)ccc1-3 [Example 2-426, N—[(S)-2-(4-hydroxyphenyl)-1-(methoxycarbamoyl)ethyl]-12-cyclohexyl-3-methoxy-6,7-dihydro-5-oxa-7a-azadibenzo[a,e]azulene-9-carboxamide] | < 100 |
| COc1ccc2c(c1)OCCn1c-2c(C2CCCCC2)c2ccc(C(=O)N[C@@H](Cc3ccc(O)cc3)C(=O)N(C)OC)cc21 [Example 2-427, N—[(S)-2-(4-hydroxyphenyl)-1-(N-methoxy-N-methylcarbamoyl)ethyl]-12-cyclohexyl-3-methoxy-6,7-dihydro-5-oxa-7a-azadibenzo[a,e]azulene-9-carboxamide] | < 100 |
| COc1ccc2c(c1)OCCn1c-2c(C2CCCCC2)c2ccc(C(=O)N[C@@H](Cc3ccc(OCc4ccccc4)cc3)c3noc(=O)[nH]3)cc21 [Example 2-428, N—[(S)-2-(4-benzyloxyphenyl)-1-(5-oxo-4,5-dihydro-1,2,4-oxadiazol-3-yl)ethyl]-12-cyclohexyl-3-methoxy-6,7-dihydro-5-oxa-7a-azadibenzo[a,e]azulene-9-carboxamide] | < 100 |
| COc1ccc2c(c1)OCCn1c-2c(C2CCCCC2)c2ccc(C(=O)N[C@@H](Cc3ccc(O)cc3)c3noc(=O)[nH]3)cc21 [Example 2-429, N—[(S)-2-(4-hydroxyphenyl)-1-(5-oxo-4,5-dihydro-1,2,4-oxadiazol-3-yl)ethyl]-12-cyclohexyl-3-methoxy-6,7-dihydro-5-oxa-7a-azadibenzo[a,e]azulene-9-carboxamide] | < 100 |
| COc1ccc2c(c1)OCCn1c-2c(C2CCCCC2)c2ccc(C(=O)N[C@@H](Cc3ccc(OC(C)=O)cc3)c3noc(=O)[nH]3)cc21 [Example 2-430, 4-[(S)-2-[(12-cyclohexyl-3-methoxy-6,7-dihydro-5-oxa-7a-azadibenzo[a,e]azulene-9-carbonyl)amino]-2-(5-oxo-4,5-dihydro-1,2,4-oxadiazol-3-yl)ethyl]phenyl acetate] | < 100 |
| COc1ccc2c(c1)OCCn1c-2c(C2CCCCC2)c2ccc(C(=O)N[C@@H](Cc3ccc(OC(C)=O)cc3)C3=NC(C)(C)C(=O)O3)cc21 [Example 2-431, 4-[(S)-2-[(12-cyclohexyl-3-methoxy-6,7-dihydro-5-oxa-7a-azadibenzo[a,e]azulene-9-carbonyl)amino]-2-(4,4-dimethyl-5-oxo-4,5-dihydrooxazol-2-yl)ethyl]phenyl acetate] | < 100 |
| COc1ccc2c(c1)OCCn1c-2c(C2CCCCC2)c2ccc(C(=O)NC(C)(C)c3nc4ccccc4n3CCN3CCOCC3)cc21 [Example 2-432, N-(1-methyl-1-{1-[2-(morpholin-4-yl)ethyl]-1H-benzimidazol-2-yl}ethyl)-12-cyclohexyl-3-methoxy-6,7-dihydro-5-oxa-7a-azadibenzo[a,e]azulene-9-carboxamide] | < 100 |
| COc1ccc2c(c1)OCCn1c-2c(C2CCCCC2)c2ccc(C(=O)NC(C)(C)c3nc4ccccc4n3CCO)cc21 [Example 2-433, N-{1-[1-(2-hydroxyethyl)-1H-benzimidazol-2-yl]-1-methylethyl}-12-cyclohexyl-3-methoxy-6,7-dihydro-5-oxa-7a-azadibenzo[a,e]azulene-9-carboxamide] | < 100 |
| COCCn1c(C(C)(C)NC(=O)c2ccc3c(C4CCCCC4)c4n(c3c2)CCOc2cc(OC)ccc2-4)nc2ccccc21 [Example 2-434, N-{1-[1-(2-methoxyethyl)-1H-benzimidazol-2-yl]-1-methylethyl}-12-cyclohexyl-3-methoxy-6,7-dihydro-5-oxa-7a-azadibenzo[a,e]azulene-9-carboxamide] | < 100 |
| CCOC(=O)[C@H](Cc1ccc(O)cc1)NC(=O)c1ccc2c(C3CCCCC3)c3n(c2c1)CCOc1cc(OC)ccc1-3 [Example 2-435, ethyl (S)-2-[(12-cyclohexyl-3-methoxy-6,7-dihydro-5-oxa-7a-azadibenzo[a,e]azulene-9-carbonyl)amino]-3-(4-hydroxyphenyl)propionate] | < 100 |
| COc1ccc2c(c1)OCCn1c-2c(C2CCCCC2)c2ccc(C(=O)NC(Cc3ccc(O)cc3)C(C)C)cc21 (stereo not drawn) [Example 2-436, N-[1-(4-hydroxybenzyl)-2-methylpropyl]-12-cyclohexyl-3-methoxy-6,7-dihydro-5-oxa-7a-azadibenzo[a,e]azulene-9-carboxamide] | < 100 |
